Assay [1] concerns the target T1, mouse RORγ (Mus musculus, UniProt P51450).
T1 construct: from Ile251 to Lys516 for mouse RORγ; expressed in transfected cells; host or cells: CHO cells (transient co-transfection with pG5-Luc)
T1 sequence (P51450 251-516): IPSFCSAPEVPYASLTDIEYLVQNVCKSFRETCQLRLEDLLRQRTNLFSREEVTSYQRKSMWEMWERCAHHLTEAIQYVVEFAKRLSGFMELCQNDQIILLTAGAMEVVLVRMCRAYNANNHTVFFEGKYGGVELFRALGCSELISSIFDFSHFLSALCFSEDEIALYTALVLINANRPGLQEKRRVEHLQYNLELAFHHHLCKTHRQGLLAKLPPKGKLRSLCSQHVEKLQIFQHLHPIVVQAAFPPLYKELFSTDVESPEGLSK
The assay can be described thus: In-vitro reporter gene assay for inhibitory activity against RORγ transcription, Test Method B (pFA/mRORγ LBD / pG5-Luc in CHO cells). It counts as cell-based. The conditions noted are these: luciferase reporter, CHO cells, 2 days. The method, then:
(§1) In-Vitro Assay for Inhibitory Activity Against RORγ Transcription
(§2) Inhibitory activity against RORγ transcription was assessed for test compounds by either of the following Test Method A or B of reporter gene assay.
(§3) cDNAs encoding human and mouse RORγ ligand binding domains (LBD) were obtained based on the sequences of human RORγ (Genbank registered number NM_005060.3) and mouse RORγ (Genbank registered number NM_011281.2) (LBD sequences: from Ser253 to Lys518 for human RORγ; from Ile251 to Lys516 for mouse RORγ).
(§4) LBD cDNAs of human and mouse RORγ were inserted into pFA-CMV vector (Agilent Technologies, Inc.), which expresses GAL4-DNA binding domain fusion protein. The resulting plasmids are hereinafter referred to as pFA/hRORγ plasmid and pFA/mRORγ plasmid, respectively.
(§5) pFA/hRORγ plasmid or pFA/mRORγ plasmid was transiently co-transfected into Chinese hamster ovary cells (CHO cells) with pG5-Luc (Promega), reporter plasmid expressing firefly luciferase in a GAL4-dependent manner.
(§6) TransIT (Registered trademark) CHO Transfection Kit (Mirus) was used to co-transfect CHO cells with the plasmids. One day prior to the assay, CHO cells were suspended in HAM F-12 Nutrient medium containing 10% (v/v) fetal bovine serum and seeded at 5.5×10^6 cells per 225 cm^2 cell culture flask each. 72 μL of TransIT (Registered trademark) CHO reagent was added into a 2 mL tube containing 1.55 mL of Opti-MEM, and then mixed and incubated at room temperature for 10 minutes. 50.4 μL of a plasmid solution containing 300 ng of pFA/hRORγ plasmid, 12000 ng of pG5-Luc plasmid, and 11700 ng of pcDNA3.1 plasmid were added into the tube and mixed gently. In the case of mouse assay, a plasmid solution containing 300 ng of pFA/mRORγ plasmid, 12000 ng of pG5-Luc plasmid, and 11700 ng of pcDNA3.1 plasmid was added, instead. The mixture was incubated at room temperature for 10 minutes. 12 μL each of CHO Mojo Reagent were then added into each tube and mixed gently. The mixture was incubated at room temperature for 10 minutes. The resulting transfection reagent was applied to the cell culture. After incubation at 37° C., 5% CO2 for 4 hours, the plasmid-transfected CHO cells were harvested by trypsin treatment. The collected cells were resuspended in culture medium and plated into a 384-well-white plate at 8,000 cells/35 μL/well. The plate was let stand at room temperature for 1 hour and then further incubated at 37° C., 5% CO2 for 3 hours. A test compound was dissolved in dimethyl sulfoxide (DMSO) to obtain a concentration of 10 mM. Each solution was serially diluted with DMSO and further diluted with culture medium just before use. The test compound solutions were added to the cells in the plate at 6 different concentrations. The final concentration of DMSO was 0.2% (v/v). After the addition of test compound, the cells were incubated at 37° C., 5% CO2 for 2 days.
(§7) RORγ transcriptional activity was detected as the intracellular luciferase activity using SteadyLite HTS Reporter Gene Assay System (Perkin Elmer). SteadyLite Reagent was diluted 2.5-fold with Extension buffer (10 mM Tricine, 0.2% (w/v) bovine serum albumin, 0.02% (v/v) Tween-20) to obtain a luciferase substrate solution. Two days after the addition of test compound, 40 μL each of the luciferase substrate solution was added into the 384-well-plate. After the incubation at room temperature for 10 minutes, luminescence of each well was measured with a microplate reader. The luciferase activity derived from the luminescence count in a vehicle-control well treated with 0.2% DMSO alone was defined as 100%, and the luciferase activity after treatment of the test compound was calculated as a percentage, %-of-control, based on the value of the vehicle-control. An EC50 value of the test compound was calculated by curve fitting. The luminescence counts at the concentration of test compound where cytotoxicity was observed were excluded from data analysis. […]

The target of assay [2] is T2, human RORγ (Homo sapiens, UniProt P51449).
T2 construct: from Ser253 to Lys518 for human RORγ; expressed in transfected cells; host or cells: CHO cells (transient co-transfection with pG5-Luc)
T2 sequence (P51449 253-518): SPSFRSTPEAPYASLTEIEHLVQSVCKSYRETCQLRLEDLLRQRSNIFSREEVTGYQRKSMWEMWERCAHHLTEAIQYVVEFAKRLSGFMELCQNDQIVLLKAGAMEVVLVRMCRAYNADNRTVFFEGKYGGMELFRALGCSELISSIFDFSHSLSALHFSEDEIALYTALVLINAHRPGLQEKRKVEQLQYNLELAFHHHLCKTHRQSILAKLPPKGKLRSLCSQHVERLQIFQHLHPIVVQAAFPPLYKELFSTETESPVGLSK
The assay can be described thus: In-vitro reporter gene assay for inhibitory activity against RORγ transcription, Test Method B (pFA/hRORγ LBD / pG5-Luc in CHO cells). The class given is cell-based. Particulars: luciferase reporter, CHO cells, 2 days. The method, then: as §1, §2, §3, §4, §5, §6, §7
(A reporter such as luciferase makes a cellular process visible.)

The conditions of assay [3]: Non Patent Literature 33; cited from earlier work.

Some results are limits rather than exact numbers.

One may read the EC50 as the midpoint of the concentration-response curve.

`CC1CC[C@]2(c3ccc(CCC(C)(C)C)c(Cl)c3)NC(=O)N(C34CCC(C(=O)O)(C3)C4)C=C2C1` (single isomer, unassigned) [Example 111]: the EC50 was found to be 3.66 µM in assay [1] and 3.45 µM in assay [2].

As for `CC1CC[C@@]2(c3ccc(CCC(C)(C)C)c(Cl)c3)NC(=O)N(C34CCC(C(=O)O)(C3)C4)C=C2C1` (single isomer, unassigned) [Example 112], the results for the EC50 in assay [1] and in assay [2] were 0.038 µM and 0.035 µM, respectively. For `C[C@H]1CCC2(c3ccc(C4C(C(C)(C)C)C4(F)F)c(Cl)c3)NC(=O)N(C34CC(C(=O)O)(C3)C4)C=C2[C@@H]1C` (single isomer, unassigned) [Example 113], in that order: 0.037 µM and 0.033 µM.

On to `C[C@H]1CCC2(c3ccc(C4C(C(C)(C)C)C4(F)F)c(Cl)c3)NC(=O)N(C34CC(C(=O)O)(C3)C4)C=C2[C@@H]1C` (single isomer, unassigned) [Example 114], for which the EC50 stood at 0.05 µM in assay [1] and 0.027 µM in assay [2]. In the case of `C[C@H]1CCC2(c3ccc(C4C(C(C)(C)C)C4(F)F)c(Cl)c3)NC(=O)N(C34CCC(C(=O)O)(C3)C4)C=C2[C@@H]1C` (single isomer, unassigned) [Example 115], the EC50 in assay [1] turned out to be 0.049 µM; in assay [2], 0.031 µM. For `C[C@H]1CCC2(c3ccc(C4C(C(C)(C)C)C4(F)F)c(Cl)c3)NC(=O)N(C34CCC(C(=O)O)(C3)C4)C=C2[C@@H]1C` (single isomer, unassigned) [Example 116], in that order: 0.101 µM and 0.044 µM.

`CC1C2=CN(C34CC(C(=O)O)(C3)C4)C(=O)N[C@@]2(c2ccc(CCC(C)(C)C)c(Cl)c2)CCC1(C)C` (single isomer, unassigned) [Example 117]: the EC50 in assay [1] was determined as 5.3 µM; in assay [2], 4.68 µM.

`CC1C2=CN(C34CC(C(=O)O)(C3)C4)C(=O)N[C@]2(c2ccc(CCC(C)(C)C)c(Cl)c2)CCC1(C)C` (single isomer, unassigned) [Example 118]: the EC50 came to 0.082 µM in assay [1] and 0.033 µM in assay [2]. For `CC1C2=CN(C34CCC(C(=O)O)(C3)C4)C(=O)N[C@@]2(c2ccc(CCC(C)(C)C)c(Cl)c2)COC1(C)C` (single isomer, unassigned) [Example 119], in that order: more than 10 µM and more than 10 µM.

On to `CC1C2=CN(C34CCC(C(=O)O)(C3)C4)C(=O)N[C@]2(c2ccc(CCC(C)(C)C)c(Cl)c2)COC1(C)C` (single isomer, unassigned) [Example 120], for which the EC50 in assay [1] worked out at 0.02 µM; in assay [2], 0.013 µM. For `CC1C2=CN(C34CCC(C(=O)O)(C3)C4)C(=O)N[C@]2(c2ccc(CCC(C)(C)C)c(Cl)c2)COC1(C)C` (single isomer, unassigned) [Example 121], in that order: 0.04 µM and 0.035 µM. On to `CCS(=O)(=O)c1ccc(CC(=O)Nc2cc(Cl)c(-c3ccccc3OC(F)(F)F)c(Cl)c2)cc1` [GSK805], for which, in assay [3], the “bone loss in experimental periodontitis model” value is “diminished bone loss”.

The values above are taken from patent US20220119355A1, “SATURATED-RING-FUSED DIHYDROPYRIMIDINONE OR DIHYDROTRIAZINONE COMPOUNDS AND PHARMACEUTICAL USE THEREOF” (Japan Tobacco Inc., priority 2018, published 2022).
